Numbers after ± are expanded uncertainties.
Experiments:
[1] = wn = mass fraction of the nth substance listed; conditions: 101.3 kPa, Liquid, Oscillating disk viscometry
[2] = refractive index (Na D-line) (dimensionless); wn = mass fraction of the nth substance listed; conditions: 101.3 kPa, Liquid, Standard Abbe refractometry

CNCCO [2-(methylamino)ethanol] + O
Conditions | refractive index, [2] | viscosity, [1] [mPa·s]
293.15 K, w1 = 0.05 | 1.3421 ± 0.0024 | 1.31 ± 0.31
293.15 K, w1 = 0.1 | 1.3452 ± 0.0024 | 1.68 ± 0.43
293.15 K, w1 = 0.15 | 1.3484 ± 0.0025 | 2.38 ± 0.53
293.15 K, w1 = 0.2 | 1.3522 ± 0.0027 | 2.66 ± 0.63
293.15 K, w1 = 0.25 | 1.3568 ± 0.0029 | 3.4 ± 0.8
293.15 K, w1 = 0.3 | 1.3624 ± 0.003 | 4.22 ± 0.95
298.15 K, w1 = 0.05 | 1.3414 ± 0.0024 | 1.1 ± 0.26
298.15 K, w1 = 0.1 | 1.3444 ± 0.0024 | 1.42 ± 0.35
298.15 K, w1 = 0.15 | 1.3476 ± 0.0025 | 2.02 ± 0.45
298.15 K, w1 = 0.2 | 1.3513 ± 0.0026 | 2.17 ± 0.49
298.15 K, w1 = 0.25 | 1.3558 ± 0.0029 | 2.74 ± 0.65
298.15 K, w1 = 0.3 | 1.3614 ± 0.003 | 3.52 ± 0.82
303.15 K, w1 = 0.05 | 1.3405 ± 0.0024 | 0.99 ± 0.22
303.15 K, w1 = 0.1 | 1.3435 ± 0.0024 | 1.22 ± 0.3
303.15 K, w1 = 0.15 | 1.3467 ± 0.0025 | 1.74 ± 0.39
303.15 K, w1 = 0.2 | 1.3502 ± 0.0026 | 1.83 ± 0.41
303.15 K, w1 = 0.25 | 1.3547 ± 0.0029 | 2.32 ± 0.54
303.15 K, w1 = 0.3 | 1.3602 ± 0.003 | 2.96 ± 0.69
308.15 K, w1 = 0.05 | 1.3396 ± 0.0024 | 0.88 ± 0.19
308.15 K, w1 = 0.1 | 1.3426 ± 0.0024 | 1.05 ± 0.24
308.15 K, w1 = 0.15 | 1.3456 ± 0.0024 | 1.42 ± 0.32
308.15 K, w1 = 0.2 | 1.349 ± 0.0026 | 1.52 ± 0.34
308.15 K, w1 = 0.25 | 1.3534 ± 0.0029 | 1.96 ± 0.46
308.15 K, w1 = 0.3 | 1.3588 ± 0.003 | 2.52 ± 0.58
313.15 K, w1 = 0.05 | 1.3386 ± 0.0024 | 0.79 ± 0.17
313.15 K, w1 = 0.1 | 1.3416 ± 0.0024 | 0.94 ± 0.21
313.15 K, w1 = 0.15 | 1.3445 ± 0.0024 | 1.22 ± 0.27
313.15 K, w1 = 0.2 | 1.3478 ± 0.0026 | 1.32 ± 0.29
313.15 K, w1 = 0.25 | 1.352 ± 0.0028 | 1.71 ± 0.4
313.15 K, w1 = 0.3 | 1.3573 ± 0.003 | 2.2 ± 0.5
318.15 K, w1 = 0.05 | 1.3375 ± 0.0024 | 0.72 ± 0.16
318.15 K, w1 = 0.1 | 1.3405 ± 0.0024 | 0.84 ± 0.19
318.15 K, w1 = 0.15 | 1.3434 ± 0.0024 | 1.04 ± 0.23
318.15 K, w1 = 0.2 | 1.3465 ± 0.0025 | 1.19 ± 0.26
318.15 K, w1 = 0.25 | 1.3505 ± 0.0028 | 1.49 ± 0.34
318.15 K, w1 = 0.3 | 1.3558 ± 0.003 | 1.92 ± 0.44
323.15 K, w1 = 0.05 | 1.3364 ± 0.0024 | 0.65 ± 0.14
323.15 K, w1 = 0.1 | 1.3394 ± 0.0024 | 0.75 ± 0.17
323.15 K, w1 = 0.15 | 1.3421 ± 0.0024 | 0.93 ± 0.2
323.15 K, w1 = 0.2 | 1.3451 ± 0.0025 | 1.06 ± 0.23
323.15 K, w1 = 0.25 | 1.349 ± 0.0028 | 1.29 ± 0.3
323.15 K, w1 = 0.3 | 1.3542 ± 0.003 | 1.65 ± 0.38
328.15 K, w1 = 0.05 | 1.3352 ± 0.0024 | 0.58 ± 0.13
328.15 K, w1 = 0.1 | 1.3381 ± 0.0024 | 0.67 ± 0.15
328.15 K, w1 = 0.15 | 1.3406 ± 0.0024 | 0.83 ± 0.18
328.15 K, w1 = 0.2 | 1.3436 ± 0.0025 | 0.94 ± 0.2
328.15 K, w1 = 0.25 | 1.3474 ± 0.0028 | 1.12 ± 0.25
328.15 K, w1 = 0.3 | 1.3524 ± 0.0029 | 1.41 ± 0.32
333.15 K, w1 = 0.05 | 1.334 ± 0.0024 | 0.52 ± 0.11
333.15 K, w1 = 0.1 | 1.3368 ± 0.0023 | 0.6 ± 0.13
333.15 K, w1 = 0.15 | 1.3391 ± 0.0023 | 0.74 ± 0.16
333.15 K, w1 = 0.2 | 1.342 ± 0.0025 | 0.83 ± 0.18
333.15 K, w1 = 0.25 | 1.3456 ± 0.0027 | 0.99 ± 0.22
333.15 K, w1 = 0.3 | 1.3504 ± 0.0029 | 1.2 ± 0.27

NCCNCCO [N-(2-aminoethyl)ethanolamine] + O
Conditions | refractive index, [2] | viscosity, [1] [mPa·s]
293.15 K, w1 = 0.05 | 1.3406 ± 0.0027 | 1.2 ± 0.29
293.15 K, w1 = 0.1 | 1.3452 ± 0.0029 | 1.6 ± 0.38
293.15 K, w1 = 0.15 | 1.351 ± 0.0033 | 2.02 ± 0.47
293.15 K, w1 = 0.2 | 1.3582 ± 0.0036 | 2.58 ± 0.62
293.15 K, w1 = 0.25 | 1.366 ± 0.004 | 3.47 ± 0.86
293.15 K, w1 = 0.3 | 1.3752 ± 0.0042 | 4.73 ± 1.1
298.15 K, w1 = 0.05 | 1.3401 ± 0.0027 | 1.11 ± 0.25
298.15 K, w1 = 0.1 | 1.3446 ± 0.0029 | 1.36 ± 0.31
298.15 K, w1 = 0.15 | 1.3504 ± 0.0033 | 1.74 ± 0.41
298.15 K, w1 = 0.2 | 1.3575 ± 0.0036 | 2.22 ± 0.53
298.15 K, w1 = 0.25 | 1.3652 ± 0.004 | 2.98 ± 0.73
298.15 K, w1 = 0.3 | 1.3744 ± 0.0042 | 3.95 ± 0.94
303.15 K, w1 = 0.05 | 1.3394 ± 0.0027 | 0.95 ± 0.22
303.15 K, w1 = 0.1 | 1.3438 ± 0.0029 | 1.18 ± 0.27
303.15 K, w1 = 0.15 | 1.3496 ± 0.0033 | 1.48 ± 0.34
303.15 K, w1 = 0.2 | 1.3567 ± 0.0036 | 1.89 ± 0.44
303.15 K, w1 = 0.25 | 1.3643 ± 0.0039 | 2.37 ± 0.59
303.15 K, w1 = 0.3 | 1.3735 ± 0.0042 | 3.32 ± 0.81
308.15 K, w1 = 0.05 | 1.3387 ± 0.0027 | 0.85 ± 0.19
308.15 K, w1 = 0.1 | 1.343 ± 0.0029 | 1.06 ± 0.24
308.15 K, w1 = 0.15 | 1.3487 ± 0.0033 | 1.32 ± 0.3
308.15 K, w1 = 0.2 | 1.3558 ± 0.0036 | 1.63 ± 0.37
308.15 K, w1 = 0.25 | 1.3633 ± 0.0039 | 2.08 ± 0.48
308.15 K, w1 = 0.3 | 1.3724 ± 0.0042 | 2.61 ± 0.62
313.15 K, w1 = 0.05 | 1.3378 ± 0.0027 | 0.76 ± 0.17
313.15 K, w1 = 0.1 | 1.3421 ± 0.0028 | 0.94 ± 0.21
313.15 K, w1 = 0.15 | 1.3476 ± 0.0033 | 1.17 ± 0.26
313.15 K, w1 = 0.2 | 1.3548 ± 0.0036 | 1.41 ± 0.32
313.15 K, w1 = 0.25 | 1.3622 ± 0.0039 | 1.76 ± 0.4
313.15 K, w1 = 0.3 | 1.3712 ± 0.0041 | 2.19 ± 0.5
318.15 K, w1 = 0.05 | 1.3368 ± 0.0027 | 0.69 ± 0.15
318.15 K, w1 = 0.1 | 1.341 ± 0.0028 | 0.84 ± 0.19
318.15 K, w1 = 0.15 | 1.3464 ± 0.0033 | 1.03 ± 0.23
318.15 K, w1 = 0.2 | 1.3536 ± 0.0036 | 1.24 ± 0.28
318.15 K, w1 = 0.25 | 1.361 ± 0.0039 | 1.53 ± 0.35
318.15 K, w1 = 0.3 | 1.3698 ± 0.0041 | 1.86 ± 0.42
323.15 K, w1 = 0.05 | 1.3358 ± 0.0026 | 0.64 ± 0.14
323.15 K, w1 = 0.1 | 1.3398 ± 0.0028 | 0.77 ± 0.17
323.15 K, w1 = 0.15 | 1.3451 ± 0.0033 | 0.92 ± 0.2
323.15 K, w1 = 0.2 | 1.3523 ± 0.0036 | 1.08 ± 0.24
323.15 K, w1 = 0.25 | 1.3597 ± 0.0038 | 1.28 ± 0.29
323.15 K, w1 = 0.3 | 1.3682 ± 0.004 | 1.59 ± 0.36
328.15 K, w1 = 0.05 | 1.3347 ± 0.0026 | 0.59 ± 0.13
328.15 K, w1 = 0.1 | 1.3385 ± 0.0027 | 0.7 ± 0.15
328.15 K, w1 = 0.15 | 1.3436 ± 0.0032 | 0.82 ± 0.18
328.15 K, w1 = 0.2 | 1.3508 ± 0.0036 | 0.95 ± 0.2
328.15 K, w1 = 0.25 | 1.3582 ± 0.0038 | 1.11 ± 0.24
328.15 K, w1 = 0.3 | 1.3664 ± 0.0039 | 1.35 ± 0.3
333.15 K, w1 = 0.05 | 1.3335 ± 0.0025 | 0.55 ± 0.12
333.15 K, w1 = 0.1 | 1.3371 ± 0.0027 | 0.64 ± 0.14
333.15 K, w1 = 0.15 | 1.342 ± 0.0032 | 0.74 ± 0.16
333.15 K, w1 = 0.2 | 1.3491 ± 0.0036 | 0.87 ± 0.19
333.15 K, w1 = 0.25 | 1.3566 ± 0.0038 | 1.02 ± 0.22
333.15 K, w1 = 0.3 | 1.3648 ± 0.0039 | 1.2 ± 0.26

Source: the NIST ThermoML archive (doi:10.1021/acs.jced.9b00171)
